According to Sander's compilation of Henry's law constants (doi:10.1111/j.1365-2621.1980.tb00916.x):

test: Henry solubility constant Hcp at 298.15 K (mol/(m3 Pa)); settings: reference: Mazza (1980)

In order of rising “Henry solubility constant Hcp” value:
1. CCCS [1-propanethiol]  0.0009
2. Cc1ccc(C)s1 [2,5-dimethylthiophene]  0.0037
3. CCCSC [methyl propyl sulfide]  0.0043
4. C=CCSC [allyl methyl sulfide]  0.005
5. C=CCSCC=C [3,3'-thiobis-1-propene]  0.0071
6. C=CCSSCC=C [4,5-dithia-1,7-octadiene]  0.0075
7. CCCSSCCC [dipropyl disulfide]  0.018
8. CC(C)O [2-propanol]  2.1
9. CCCO [1-propanol]  3.7
10. CCO [ethanol]  6.2
